The record followed here is US8461328B2, “Tricyclic heterocyclic compounds, compositions and methods of use thereof” (Genentech, Inc., priority 2010, dated 2013).

What all share (type): biochemical
Assay [1] has as its target T1, JAK3 (Homo sapiens, UniProt P52333).
T1 construct: made in house; host or cells: SF9 insect cells (baculovirus)
Nature of the assay: JAK3 inhibition (Table 4). The following applies: read-out: JAK3 Ki.

Assay [2] addresses T2, JAK2 (Homo sapiens, UniProt O60674).
T2 construct: made in house; host or cells: SF9 insect cells (baculovirus)
Nature of the assay: JAK2 inhibition (Table 4). Particulars: read-out: JAK2 Ki.

Assay [3] concerns the target T3, JAK1 (Homo sapiens, UniProt P23458).
T3 construct: made in house; host or cells: SF9 insect cells (baculovirus)
Nature of the assay: JAK1 inhibition (Table 4). The following applies: read-out: JAK1 Ki.

The target in assay [4] is T4, TYK2 (Homo sapiens, UniProt P29597).
T4 construct: made in house; host or cells: SF9 insect cells (baculovirus)
T4 sequence (P29597 873-1187): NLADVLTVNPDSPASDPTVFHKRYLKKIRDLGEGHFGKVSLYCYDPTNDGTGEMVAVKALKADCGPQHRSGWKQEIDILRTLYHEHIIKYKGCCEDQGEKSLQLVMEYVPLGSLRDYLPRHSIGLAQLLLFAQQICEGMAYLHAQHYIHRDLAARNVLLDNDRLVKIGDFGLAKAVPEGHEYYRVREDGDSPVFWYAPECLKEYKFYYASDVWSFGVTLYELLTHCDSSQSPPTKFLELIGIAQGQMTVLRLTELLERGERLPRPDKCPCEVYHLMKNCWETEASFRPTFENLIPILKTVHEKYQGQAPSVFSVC
Nature of the assay: TYK2 inhibition (Table 4).

T3 sequence (P23458 852-1154): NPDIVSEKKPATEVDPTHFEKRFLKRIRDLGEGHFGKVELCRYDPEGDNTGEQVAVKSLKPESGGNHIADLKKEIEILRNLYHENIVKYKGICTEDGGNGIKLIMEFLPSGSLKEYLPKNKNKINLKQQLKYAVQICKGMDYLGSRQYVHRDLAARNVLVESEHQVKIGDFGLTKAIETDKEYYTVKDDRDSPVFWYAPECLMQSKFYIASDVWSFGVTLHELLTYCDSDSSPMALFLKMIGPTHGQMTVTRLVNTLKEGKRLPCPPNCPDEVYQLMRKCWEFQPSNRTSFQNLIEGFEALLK
T2 sequence (O60674 812-1132): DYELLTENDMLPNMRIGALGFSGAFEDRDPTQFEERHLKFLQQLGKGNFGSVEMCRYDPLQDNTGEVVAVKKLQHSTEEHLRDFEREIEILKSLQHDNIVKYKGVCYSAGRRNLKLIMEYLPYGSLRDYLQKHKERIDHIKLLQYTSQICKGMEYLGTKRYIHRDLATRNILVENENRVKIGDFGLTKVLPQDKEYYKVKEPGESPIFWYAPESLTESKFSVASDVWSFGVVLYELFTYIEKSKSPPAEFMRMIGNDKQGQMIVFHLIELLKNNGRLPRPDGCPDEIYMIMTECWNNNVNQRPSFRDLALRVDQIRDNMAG
T1 sequence (P52333 783-1124): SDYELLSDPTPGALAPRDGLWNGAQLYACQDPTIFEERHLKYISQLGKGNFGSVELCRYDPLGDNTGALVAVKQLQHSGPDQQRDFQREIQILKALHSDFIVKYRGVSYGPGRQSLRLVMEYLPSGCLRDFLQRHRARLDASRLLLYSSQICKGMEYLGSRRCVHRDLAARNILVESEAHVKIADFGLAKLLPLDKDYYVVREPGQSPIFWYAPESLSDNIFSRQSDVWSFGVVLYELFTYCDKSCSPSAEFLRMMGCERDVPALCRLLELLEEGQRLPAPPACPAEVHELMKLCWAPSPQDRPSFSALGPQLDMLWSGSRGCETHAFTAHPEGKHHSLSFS

Broadly, the Ki is the equilibrium dissociation constant of an inhibitor or competing ligand from its target. Take `C[C@@H](O)c1nc2cnc3[nH]ccc3c2n1C1CCC(CCS(C)(=O)=O)CC1` (stereo partly drawn) [Example 778, (R)-1-{1-[4-(2-methanesulfonyl-ethyl)-cyclohexyl]-1,6-dihydro-1,3,5,6-tetraaza-as-indacen-2-yl}-ethanol]: the Ki in assay [1] was found to be 0.0424 µM; in assay [2] it was 0.0132 µM; in assay [3], 0.00065 µM; in assay [4], 0.00689 µM.
Turning to `C[C@@H](O)c1nc2cnc3[nH]ccc3c2n1C1CCC(n2cncn2)CC1` (stereo partly drawn) [Example 779, (R)-1-[1-(4-[1,2,4]triazol-1-yl-cyclohexyl)-1,6-dihydro-1,3,5,6-tetraaza-as-indacen-2-yl]-ethanol], the Ki in assay [1] worked out at 0.233 µM; in assay [2], 0.0738 µM; in assay [3] it was 0.00487 µM; in assay [4], 0.0391 µM.
Regarding `C[C@H](O)c1nc2cnc3[nH]ccc3c2n1[C@@H]1CCCN(C(=O)CC(F)(F)F)C1` [Example 782, 3,3,3-Trifluoro-1-{(R)-3-[2-((S)-1-hydroxy-ethyl)-6H-1,3,5,6-tetraaza-as-indacen-1-yl]-piperidin-1-yl}-propan-1-one], the Ki in assay [1] amounted to 2.97 µM; in assay [2], 1.47 µM; in assay [3], 0.286 µM; in assay [4] it was 3.04 µM.
For `C[C@@H](O)c1nc2cnc3[nH]ccc3c2n1[C@@H]1CCCN(C(=O)C2CCOCC2)C1` [Example 783, {(R)-3-[2-((R)-1-Hydroxy-ethyl)-6H-1,3,5,6-tetraaza-as-indacen-1-yl]-piperidin-1-yl}-(tetrahydro-pyran-4-yl)-methanone], the Ki in assay [1] came out at 2.66 µM; in assay [2], 1.46 µM; in assay [3], 0.137 µM; in assay [4], 1.79 µM.
For `C[C@@H](O)c1nc2cnc3[nH]ccc3c2n1[C@@H]1CCCN(C(=O)CC(F)(F)F)C1` [Example 785, 3,3,3-Trifluoro-1-{(R)-3-[2-((R)-1-hydroxy-ethyl)-6H-1,3,5,6-tetraaza-as-indacen-1-yl]-piperidin-1-yl}-propan-1-one] the same measures were 0.566 µM, 0.373 µM, 0.0319 µM and 0.278 µM.
The like results for `CC(O)c1nc2cnc3[nH]ccc3c2n1C1CCCN(C(=O)C2CCOC2)C1` (stereo not shown) [Example 786, {3-[2-(1-Hydroxy-ethyl)-6H-1,3,5,6-tetraaza-as-indacen-1-yl]-piperidin-1-yl}-(tetrahydro-furan-3-yl)-methanone] were, in that order, 1.12 µM, 0.596 µM, 0.0525 µM and 0.599 µM.
As for `C[C@@H](O)c1nc2cnc3[nH]ccc3c2n1[C@@H]1CCCN(C(=O)C2CCCC2)C1` [Example 788, Cyclopentyl-{(R)-3-[2-((R)-1-hydroxy-ethyl)-6H-1,3,5,6-tetraaza-as-indacen-1-yl]-piperidin-1-yl}-methanone], the inhibition constant Ki in assay [1] was determined as 0.844 µM; in assay [2], 0.792 µM; in assay [3] it was 0.0671 µM; in assay [4], 0.716 µM.
In the case of `CC(O)c1nc2cnc3[nH]ccc3c2n1C1CCCN(C(=O)C2CC2(F)F)C1` (stereo not shown) [Example 790, (2,2-Difluoro-cyclopropyl)-{3-[2-(1-hydroxy-ethyl)-6H-1,3,5,6-tetraaza-as-indacen-1-yl]-piperidin-1-yl}-methanone], the Ki in assay [1] was determined as 0.884 µM; in assay [2], 0.74 µM; in assay [3], 0.0799 µM; in assay [4], 0.587 µM.
Regarding `C[C@@H](O)c1nc2cnc3[nH]ccc3c2n1[C@@H]1CCCN(C(=O)CC2CC2)C1` [Example 791, 2-Cyclopropyl-1-{(R)-3-[2-((R)-1-hydroxy-ethyl)-6H-1,3,5,6-tetraaza-as-indacen-1-yl]-piperidin-1-yl}-ethanone], the Ki amounted to 0.822 µM in assay [1], 1.08 µM in assay [2], 0.0824 µM in assay [3] and 0.814 µM in assay [4].
With `C[C@@H](O)c1nc2cnc3[nH]ccc3c2n1[C@@H]1CCCN(C(=O)C2CCC2)C1` [Example 792, Cyclobutyl-{(R)-3-[2-((R)-1-hydroxy-ethyl)-6H-1,3,5,6-tetraaza-as-indacen-1-yl]-piperidin-1-yl}-methanone], the inhibitory constant (Ki) came to 1.06 µM in assay [1], 0.26 µM in assay [2], 0.0764 µM in assay [3] and 0.449 µM in assay [4].
For `CC(C)CC(=O)N1CCC[C@@H](n2c([C@@H](C)O)nc3cnc4[nH]ccc4c32)C1` [Example 793, 1-{(R)-3-[2-((R)-1-Hydroxy-ethyl)-6H-1,3,5,6-tetraaza-as-indacen-1-yl]-piperidin-1-yl}-3-methyl-butan-1-one], the inhibition constant Ki was 2.36 µM in assay [1], 2.28 µM in assay [2], 0.267 µM in assay [3] and 2.01 µM in assay [4].
Turning to `C[C@@H](O)c1nc2cnc3[nH]ccc3c2n1[C@@H]1CCCN(C(=O)C2CC2)C1` [Example 794, Cyclopropyl-{(R)-3-[2-((R)-1-hydroxy-ethyl)-6H-1,3,5,6-tetraaza-as-indacen-1-yl]-piperidin-1-yl}-methanone], the Ki in assay [1] worked out at 1.23 µM; in assay [2], 0.886 µM; in assay [3], 0.116 µM; in assay [4], 0.42 µM.
For the compound `CCC(=O)N1CCC[C@@H](n2c([C@@H](C)O)nc3cnc4[nH]ccc4c32)C1` [Example 795, 1-{(R)-3-[2-((R)-1-Hydroxy-ethyl)-6H-1,3,5,6-tetraaza-as-indacen-1-yl]-piperidin-1-yl}-propan-1-one], the Ki in assay [1] was 1.37 µM; in assay [2], 0.876 µM; in assay [3], 0.221 µM; in assay [4], 0.698 µM.
For `CC(O)c1nc2cnc3[nH]ccc3c2n1C1CCCN(C(=O)C2CC2C)C1` (stereo not shown) [Example 796, {3-[2-(1-Hydroxy-ethyl)-6H-1,3,5,6-tetraaza-as-indacen-1-yl]-piperidin-1-yl}-(2-methyl-cyclopropyl)-methanone] the same measures were 0.884 µM, 0.746 µM, 0.055 µM and 0.617 µM.
For `CCOC(=O)N1CCC[C@@H](n2c([C@@H](C)O)nc3cnc4[nH]ccc4c32)C1` [Example 800, (R)-3-[2-((R)-1-Hydroxy-ethyl)-6H-1,3,5,6-tetraaza-as-indacen-1-yl]-piperidine-1-carboxylic acid ethyl ester], the inhibitory constant (Ki) in assay [1] came out at 1.42 µM; in assay [2] it was 1.46 µM; in assay [3], 0.163 µM; in assay [4], 1.09 µM.
The like results for `O=C1CCCN1CCc1nc2cnc3[nH]ccc3c2n1C1CCCCC1` [Example 801, 1-[2-(1-Cyclohexyl-1,6-dihydro-1,3,5,6-tetraaza-as-indacen-2-yl)-ethyl]-pyrrolidin-2-one] were, in that order, 0.0768 µM, 0.0515 µM, 0.00774 µM and 0.0649 µM.
`CC(=O)N(C)CCc1nc2cnc3[nH]ccc3c2n1C1CCCCC1` [Example 802, N-[2-(1-Cyclohexyl-1,6-dihydro-1,3,5,6-tetraaza-as-indacen-2-yl)-ethyl]-N-methyl-acetamide]: the inhibitory constant (Ki) in assay [1] was 0.0795 µM; in assay [2] it was 0.0486 µM; in assay [3], 0.00777 µM; in assay [4], 0.0547 µM.
As to `CN(C)C(=O)CCc1nc2cnc3[nH]ccc3c2n1C1CCCCC1` [Example 803, 3-(1-Cyclohexyl-1,6-dihydro-1,3,5,6-tetraaza-as-indacen-2-yl)-N,N-dimethyl-propionamide], the Ki in assay [1] was 0.0257 µM; in assay [2] it was 0.044 µM; in assay [3], 0.0161 µM; in assay [4] it was 0.0768 µM.
With `CCN1CCC(n2c(CCNC(C)=O)nc3cnc4[nH]ccc4c32)C(F)(F)C1` (stereo not shown) [Example 807, N-{2-[1-(1-Ethyl-3,3-difluoro-piperidin-4-yl)-1,6-dihydro-1,3,5,6-tetraaza-as-indacen-2-yl]-ethyl}-acetamide], the Ki was 0.0159 µM in assay [1], 0.0347 µM in assay [2], 0.00378 µM in assay [3] and 0.257 µM in assay [4].
Take `CCN1CC[C@@H](n2c(CCNS(C)(=O)=O)nc3cnc4[nH]ccc4c32)[C@@H](F)C1` [Example 808, N-{2-[1-((3S,4R)-1-Ethyl-3-fluoro-piperidin-4-yl)-1,6-dihydro-1,3,5,6-tetraaza-as-indacen-2-yl]-ethyl}-methanesulfonamide]: the Ki in assay [1] worked out at 0.128 µM; in assay [2], 0.0341 µM; in assay [3] it was 0.00477 µM; in assay [4], 0.303 µM.
`CCN1CC[C@@H](n2c(CCNS(=O)(=O)C3CC3)nc3cnc4[nH]ccc4c32)[C@@H](F)C1` [Example 809, Cyclopropanesulfonic acid {2-[1-((3S,4R)-1-ethyl-3-fluoro-piperidin-4-yl)-1,6-dihydro-1,3,5,6-tetraaza-as-indacen-2-yl]-ethyl}-amide]: the Ki in assay [1] came out at 0.162 µM; in assay [2], 0.0466 µM; in assay [3] it was 0.00567 µM; in assay [4], 0.381 µM.
Take `CCN1CC[C@@H](n2c(CCNS(=O)(=O)C(C)C)nc3cnc4[nH]ccc4c32)[C@@H](F)C1` [Example 810, Propane-2-sulfonic acid {2-[1-((3S,4R)-1-ethyl-3-fluoro-piperidin-4-yl)-1,6-dihydro-1,3,5,6-tetraaza-as-indacen-2-yl]-ethyl}-amide]: the inhibition constant Ki in assay [1] was found to be 0.181 µM; in assay [2], 0.0447 µM; in assay [3], 0.00572 µM; in assay [4] it was 0.385 µM.
